Source: US20260209217A1, “CRYSTALLINE FORMS OF (S)-5-((3-(4-(4-FLUOROPHENYL)-1H-IMIDAZOL-2-YL)CHROMAN-6-YL)OXY)-3,4-DIHYDRO-1,8-NAPHTHYRIDIN-2(1H)-ONE” (Jazz Pharmaceuticals Ireland Limited, priority 2022, published 2026)
“Also recorded” adds a separate entry of the source.

What was measured:
Type in all cases: physicochemical
[1] = Solubility / in vitro dissolution in biorelevant media
Experimental: In vitro dissolution profiles were analyzed for Form A and Form F. In vitro drug dissolution and release testing can provide insight into a drug's in vivo performance such as bioavailability.
Because Forms A and F were selected for further pharmaceutical development, dissolution tests were performed on these forms. The tests were performed at different pH and in biorelevant media: hydrochloric acid (HCl), fasted state simulated gastric fluid (FaSSGF), fasted state simulated intestinal fluid (FaSSIF), and fed state simulated intestinal fluid (FeSSIF) (75 rpm, 900 mL). Three 10 mg and 50 mg capsules were analyzed as shown below in Table 18. The capsules include those including only Form A, 90% Form A spiked with 10% of Form F, and Form F. The results are shown in FIGS. 14A-14C (10 mg capsules) and FIGS. 15A-15C (50 mg capsules).

[2] = Dynamic vapor sorption (DVS) isotherm analysis
Experimental: Approximately 10 mg of material was analyzed using an automated dynamic vapor sorption analyzer (Intrinsic/Advantage) at 25° C. Method 1 for anhydrate undergo humidity cycle of 40-0-95-0-40% RH with stage step of 10% RH during which mass change was recorded. Method 2 for hydrate undergo humidity cycle of 40-95-0-95-40% RH with stage step of 10% RH during which mass change we recorded. Equilibrium set up was 0.002 dm/dt (%/min). Minimum dm/dt stability during in 60 min and maximum dm/dt stability duration is 360 min.

[3] = Stability of crystalline forms as evidenced by DSC and TGA thermograms; settings: relative to the other crystalline forms
Experimental: Approximately 1-2 mg of material was weighed into an aluminum DSC pan with a pin hold. The sample pan then placed on Differential Scanning Calorimetry (TA Discovery 2500) with protected nitrogen flow rate of 50 mL/min. The sample was heated at rate of 10° C./min from 30° C. to 250° C. during which heat flow was recorded.
Approximately 2 mg of material was weighed into an open aluminum pan and loaded into a simultaneous thermogravimetric/differential thermal analyzer (TG Discovery 5500) and held at room temperature. Nitrogen flow rate for balance was 10 mL/min and nitrogen flow rate for sample was 25 mL/min. The sample was then heated at a rate of 10° C./min from 30° C. to 300° C. during which time the change in sample weight was recorded.

[4] = DVS Cycle 1, target 40.0 % P/Po, 24.8° C.
[5] = DVS Cycle 1, target 50.0 % P/Po, 24.8° C.
[6] = DVS Cycle 1, target 60.0 % P/Po, 24.8° C.
[7] = DVS Cycle 1, target 70.0 % P/Po, 24.8° C.
[8] = DVS Cycle 1, target 80.0 % P/Po, 24.8° C.
[9] = DVS Cycle 1, target 90.0 % P/Po, 24.8° C.
[10] = DVS Cycle 1, target 95.0 % P/Po, 24.8° C.
[11] = DVS Cycle 2, target 40.0 % P/Po, 24.8° C.
[12] = DVS Cycle 2, target 50.0 % P/Po, 24.8° C.
[13] = DVS Cycle 2, target 60.0 % P/Po, 24.8° C.
[14] = DVS Cycle 2, target 70.0 % P/Po, 24.8° C.
[15] = DVS Cycle 2, target 80.0 % P/Po, 24.8° C.
[16] = DVS Cycle 2, target 90.0 % P/Po, 24.8° C.
[17] = DVS Cycle 2, target 95.0 % P/Po, 24.8° C.
[18] = DVS Cycle 1, target 0.0 % P/Po, 24.9° C.
[19] = DVS Cycle 1, target 10.0 % P/Po, 24.9° C.
[20] = DVS Cycle 1, target 20.0 % P/Po, 24.9° C.
[21] = DVS Cycle 1, target 30.0 % P/Po, 24.9° C.
[22] = DVS Cycle 1, target 40.0 % P/Po, 24.9° C.
[23] = DVS Cycle 2, target 0.0 % P/Po, 24.9° C.
[24] = DVS Cycle 2, target 10.0 % P/Po, 24.9° C.
[25] = DVS Cycle 2, target 20.0 % P/Po, 24.9° C.
[26] = DVS Cycle 2, target 30.0 % P/Po, 24.9° C.
[27] = DVS Cycle 2, target 40.0 % P/Po, 24.9° C.

O=C1CCc2c(Oc3ccc4c(c3)C[C@@H](c3nc(-c5ccc(F)cc5)c[nH]3)CO4)ccnc2N1 [Compound I, (S)-5-((3-(4-(4-fluorophenyl)-1H-imidazol-2-yl)chroman-6-yl)oxy)-3,4-dihydro-1,8-naphthyridin-2(1H)-one]
solubility [1]: poorly soluble

O=C1CCc2c(Oc3ccc4c(c3)C[C@@H](c3nc(-c5ccc(F)cc5)c[nH]3)CO4)ccnc2N1 [Form A, (S)-5-((3-(4-(4-fluorophenyl)-1H-imidazol-2-yl)chroman-6-yl)oxy)-3,4-dihydro-1,8-naphthyridin-2(1H)-one]
Change In Mass (%) - ref, Desorption ([2]; DVS Cycle 1, target 0.0 % P/Po, 24.8° C.): 0.002% | Change In Mass (%) - ref, Desorption ([2]; DVS Cycle 1, target 10.0 % P/Po, 24.8° C.): 0.350% | Change In Mass (%) - ref, Desorption ([2]; DVS Cycle 1, target 20.0 % P/Po, 24.8° C.): 0.941% | Change In Mass (%) - ref, Desorption ([2]; DVS Cycle 1, target 30.0 % P/Po, 24.8° C.): 3.649% | Change In Mass (%) - ref, Desorption [2, 4]: 4.700% | Change In Mass (%) - ref, Hysteresis [2, 4]: 0.077% | Change In Mass (%) - ref, Sorption [2, 4]: 4.623% | Change In Mass (%) - ref, Desorption [2, 5]: 5.395% | Change In Mass (%) - ref, Hysteresis [2, 5]: 0.283% | Change In Mass (%) - ref, Sorption [2, 5]: 5.112% | Change In Mass (%) - ref, Desorption [2, 6]: 5.814% | Change In Mass (%) - ref, Hysteresis [2, 6]: 0.339% | Change In Mass (%) - ref, Sorption [2, 6]: 5.475% | Change In Mass (%) - ref, Desorption [2, 7]: 6.213% | Change In Mass (%) - ref, Hysteresis [2, 7]: 0.368% | Change In Mass (%) - ref, Sorption [2, 7]: 5.845% | Change In Mass (%) - ref, Desorption [2, 8]: 6.535% | Change In Mass (%) - ref, Hysteresis [2, 8]: 0.341% | Change In Mass (%) - ref, Sorption [2, 8]: 6.194% | Change In Mass (%) - ref, Desorption [2, 9]: 6.824% | Change In Mass (%) - ref, Hysteresis [2, 9]: 0.230% | Change In Mass (%) - ref, Sorption [2, 9]: 6.594% | Change In Mass (%) - ref, Desorption [2, 10]: 6.838% | Change In Mass (%) - ref, Sorption [2, 10]: 6.838% | Change In Mass (%) - ref, Sorption ([2]; DVS Cycle 2, target 0.0 % P/Po, 24.8° C.): 0.002% | Change In Mass (%) - ref, Sorption ([2]; DVS Cycle 2, target 10.0 % P/Po, 24.8° C.): 0.312% | Change In Mass (%) - ref, Sorption ([2]; DVS Cycle 2, target 20.0 % P/Po, 24.8° C.): 0.853% | Change In Mass (%) - ref, Sorption ([2]; DVS Cycle 2, target 30.0 % P/Po, 24.8° C.): 3.253% | Change In Mass (%) - ref, Desorption [2, 11]: 4.601% | Change In Mass (%) - ref, Hysteresis [2, 11]: 0.375% | Change In Mass (%) - ref, Sorption [2, 11]: 4.225% | Change In Mass (%) - ref, Desorption [2, 12]: 5.295% | Change In Mass (%) - ref, Hysteresis [2, 12]: 0.495% | Change In Mass (%) - ref, Sorption [2, 12]: 4.800% | Change In Mass (%) - ref, Desorption [2, 13]: 5.715% | Change In Mass (%) - ref, Hysteresis [2, 13]: 0.466% | Change In Mass (%) - ref, Sorption [2, 13]: 5.248% | Change In Mass (%) - ref, Desorption [2, 14]: 6.129% | Change In Mass (%) - ref, Hysteresis [2, 14]: 0.423% | Change In Mass (%) - ref, Sorption [2, 14]: 5.706% | Change In Mass (%) - ref, Desorption [2, 15]: 6.446% | Change In Mass (%) - ref, Hysteresis [2, 15]: 0.324% | Change In Mass (%) - ref, Sorption [2, 15]: 6.122% | Change In Mass (%) - ref, Desorption [2, 16]: 6.737% | Change In Mass (%) - ref, Hysteresis [2, 16]: 0.201% | Change In Mass (%) - ref, Sorption [2, 16]: 6.536% | Change In Mass (%) - ref, Desorption [2, 17]: 6.745% | Change In Mass (%) - ref, Sorption [2, 17]: 6.745% | stability of the crystalline form [3]: high degree of crystallinity and stability; also recorded: increased stability

O=C1CCc2c(Oc3ccc4c(c3)C[C@@H](c3nc(-c5ccc(F)cc5)c[nH]3)CO4)ccnc2N1 [Form F, (S)-5-((3-(4-(4-fluorophenyl)-1H-imidazol-2-yl)chroman-6-yl)oxy)-3,4-dihydro-1,8-naphthyridin-2(1H)-one]
Change In Mass (%) - ref, Desorption [2, 18]: 0.006% | Change In Mass (%) - ref, Sorption [2, 18]: 0.006% | Change In Mass (%) - ref, Desorption [2, 19]: 0.301% | Change In Mass (%) - ref, Hysteresis [2, 19]: 0.128% | Change In Mass (%) - ref, Sorption [2, 19]: 0.173% | Change In Mass (%) - ref, Desorption [2, 20]: 0.458% | Change In Mass (%) - ref, Hysteresis [2, 20]: 0.134% | Change In Mass (%) - ref, Sorption [2, 20]: 0.324% | Change In Mass (%) - ref, Desorption [2, 21]: 0.566% | Change In Mass (%) - ref, Hysteresis [2, 21]: 0.111% | Change In Mass (%) - ref, Sorption [2, 21]: 0.455% | Change In Mass (%) - ref, Desorption [2, 22]: 0.649% | Change In Mass (%) - ref, Hysteresis [2, 22]: 0.075% | Change In Mass (%) - ref, Sorption [2, 22]: 0.574% | Change In Mass (%) - ref, Sorption ([2]; DVS Cycle 1, target 50.0 % P/Po, 24.9° C.): 0.690% | Change In Mass (%) - ref, Sorption ([2]; DVS Cycle 1, target 60.0 % P/Po, 24.9° C.): 0.813% | Change In Mass (%) - ref, Sorption ([2]; DVS Cycle 1, target 70.0 % P/Po, 24.9° C.): 0.964% | Change In Mass (%) - ref, Sorption ([2]; DVS Cycle 1, target 80.0 % P/Po, 24.9° C.): 1.160% | Change In Mass (%) - ref, Sorption ([2]; DVS Cycle 1, target 90.0 % P/Po, 24.9° C.): 1.601% | Change In Mass (%) - ref, Sorption ([2]; DVS Cycle 1, target 95.0 % P/Po, 24.9° C.): 1.911% | Change In Mass (%) - ref, Desorption [2, 23]: 0.156% | Change In Mass (%) - ref, Sorption [2, 23]: 0.156% | Change In Mass (%) - ref, Desorption [2, 24]: 0.718% | Change In Mass (%) - ref, Hysteresis [2, 24]: 0.355% | Change In Mass (%) - ref, Sorption [2, 24]: 0.363% | Change In Mass (%) - ref, Desorption [2, 25]: 1.060% | Change In Mass (%) - ref, Hysteresis [2, 25]: 0.495% | Change In Mass (%) - ref, Sorption [2, 25]: 0.565% | Change In Mass (%) - ref, Desorption [2, 26]: 1.291% | Change In Mass (%) - ref, Hysteresis [2, 26]: 0.539% | Change In Mass (%) - ref, Sorption [2, 26]: 0.752% | Change In Mass (%) - ref, Desorption [2, 27]: 1.459% | Change In Mass (%) - ref, Hysteresis [2, 27]: 0.532% | Change In Mass (%) - ref, Sorption [2, 27]: 0.927% | Change In Mass (%) - ref, Desorption ([2]; DVS Cycle 2, target 50.0 % P/Po, 24.9° C.): 1.595% | Change In Mass (%) - ref, Desorption ([2]; DVS Cycle 2, target 60.0 % P/Po, 24.9° C.): 1.711% | Change In Mass (%) - ref, Desorption ([2]; DVS Cycle 2, target 70.0 % P/Po, 24.9° C.): 1.813% | Change In Mass (%) - ref, Desorption ([2]; DVS Cycle 2, target 80.0 % P/Po, 24.9° C.): 1.901% | Change In Mass (%) - ref, Desorption ([2]; DVS Cycle 2, target 90.0 % P/Po, 24.9° C.): 1.964% | Change In Mass (%) - ref, Desorption ([2]; DVS Cycle 2, target 95.0 % P/Po, 24.9° C.): 1.911% | stability of the crystalline form [3]: high degree of crystallinity and stability; also recorded: increased stability
